According to patent US20230014445A1, “ALLOSTERIC CHROMENONE INHIBITORS OF PHOSPHOINOSITIDE 3-KINASE (PI3K) FOR THE TREATMENT OF DISEASE” (Petra Pharma Corporation, priority 2021, published 2023):
Like-named read-outs stand apart in the source and are kept apart here.

What was measured:
[1] = target: T1, human full length PIK3KA H1047R mutant (p110α/p85α complex) (Homo sapiens, UniProt P42336, H1047R); assay: PI3K-Alpha Kinase (PIK3CA) biochemical activity, H1047R mutant (ADP-Glo); conditions: Soy PI lipid substrate, 20 uM ATP
T1 construct: Recombinant, catalytically active human full length PIK3KA Wild-type and H1047R mutant were purchased; 6xHis (N); purchased EMD Millipore Sigma 14-792M
T1 sequence (P42336 whole entry H1047R): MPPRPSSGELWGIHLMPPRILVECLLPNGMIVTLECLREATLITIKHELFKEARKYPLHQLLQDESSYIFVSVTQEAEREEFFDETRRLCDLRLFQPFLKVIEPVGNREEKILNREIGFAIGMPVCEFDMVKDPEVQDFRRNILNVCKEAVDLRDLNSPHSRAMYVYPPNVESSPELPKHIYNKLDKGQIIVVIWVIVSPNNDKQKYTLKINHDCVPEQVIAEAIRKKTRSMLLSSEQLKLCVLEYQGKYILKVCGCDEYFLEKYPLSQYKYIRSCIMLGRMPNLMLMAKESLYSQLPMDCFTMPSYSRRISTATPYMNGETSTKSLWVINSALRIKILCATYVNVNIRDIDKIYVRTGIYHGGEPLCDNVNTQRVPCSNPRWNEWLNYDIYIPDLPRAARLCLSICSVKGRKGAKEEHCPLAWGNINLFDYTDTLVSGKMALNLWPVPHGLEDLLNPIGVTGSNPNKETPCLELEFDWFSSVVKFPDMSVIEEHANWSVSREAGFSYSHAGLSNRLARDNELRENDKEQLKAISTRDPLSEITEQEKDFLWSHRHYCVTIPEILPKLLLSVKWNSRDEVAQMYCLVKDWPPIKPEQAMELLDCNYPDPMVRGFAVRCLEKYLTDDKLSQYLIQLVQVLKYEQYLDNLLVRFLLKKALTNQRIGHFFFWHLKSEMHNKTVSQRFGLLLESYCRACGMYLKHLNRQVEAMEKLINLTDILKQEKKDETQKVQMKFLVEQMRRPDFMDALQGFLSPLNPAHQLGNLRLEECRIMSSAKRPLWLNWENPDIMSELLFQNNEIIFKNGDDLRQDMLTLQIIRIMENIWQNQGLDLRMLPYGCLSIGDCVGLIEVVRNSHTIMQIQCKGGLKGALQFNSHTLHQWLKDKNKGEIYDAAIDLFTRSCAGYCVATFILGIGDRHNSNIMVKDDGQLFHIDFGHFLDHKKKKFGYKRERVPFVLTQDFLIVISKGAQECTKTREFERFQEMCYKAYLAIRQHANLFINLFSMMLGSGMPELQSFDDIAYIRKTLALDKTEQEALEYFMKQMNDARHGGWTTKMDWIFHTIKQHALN
T1 sequence (P27986 whole entry partner): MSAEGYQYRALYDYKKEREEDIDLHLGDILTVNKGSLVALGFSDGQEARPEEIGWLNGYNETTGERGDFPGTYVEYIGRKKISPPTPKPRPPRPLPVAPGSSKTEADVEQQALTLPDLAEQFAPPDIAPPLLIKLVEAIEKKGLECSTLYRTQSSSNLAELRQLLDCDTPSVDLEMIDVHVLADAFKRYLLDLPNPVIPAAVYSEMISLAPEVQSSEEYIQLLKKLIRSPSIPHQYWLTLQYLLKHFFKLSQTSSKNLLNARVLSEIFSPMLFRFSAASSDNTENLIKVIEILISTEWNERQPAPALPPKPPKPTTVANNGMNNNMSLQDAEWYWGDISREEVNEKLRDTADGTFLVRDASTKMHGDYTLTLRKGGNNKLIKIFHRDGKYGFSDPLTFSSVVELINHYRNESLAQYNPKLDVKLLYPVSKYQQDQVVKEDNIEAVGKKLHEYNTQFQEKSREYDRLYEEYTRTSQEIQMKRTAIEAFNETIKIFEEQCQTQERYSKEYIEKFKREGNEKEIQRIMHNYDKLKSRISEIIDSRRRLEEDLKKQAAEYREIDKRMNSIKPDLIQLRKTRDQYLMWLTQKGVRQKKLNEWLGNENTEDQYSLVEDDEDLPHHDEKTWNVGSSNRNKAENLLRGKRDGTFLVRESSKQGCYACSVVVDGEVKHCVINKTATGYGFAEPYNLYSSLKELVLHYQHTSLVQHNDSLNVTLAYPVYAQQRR
How it was run: (§1)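 ADP formation, measured by ADP-Glo luminescence after reaction to about 10% ATP conversion at 27° C., gives 10-point 4-parameter IC50 curves normalized to no-enzyme and DMSO controls. Lipid substrate was PIP2diC8 or Soy PI at 50 uM, with 20 uM ATP. WT or H1047R p110α/p85α complex (1-5 nM) was preincubated 1 h with compound.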

[2] = target: T2, human full length PIK3KA Wild-type (p110α/p85α complex) (Homo sapiens, UniProt P42336); assay: PI3K-Alpha Kinase (PIK3CA) biochemical activity, wild-type (ADP-Glo); conditions: Soy PI lipid substrate, 20 uM ATP
T2 construct: Recombinant, catalytically active human full length PIK3KA Wild-type and H1047R mutant were purchased; 6xHis (N); purchased EMD Millipore Sigma 14-602M
How it was run: as §1

[3] = target: PI3K-α (PIK3CA) in MDA-MB-453 cells (Homo sapiens, UniProt P42336); assay: PI3K-Alpha Kinase (PIK3CA) activity in vitro cell based assay (AlphaLisa SureFire)
Sequence of PI3K-α (PIK3CA) in MDA-MB-453 cells (P42336 whole entry): as the sequence (P42336 whole entry H1047R) above, with R1047H counted along it
Sequence of PI3K-α (PIK3CA) in MDA-MB-453 cells (P27986 2-724, further chain): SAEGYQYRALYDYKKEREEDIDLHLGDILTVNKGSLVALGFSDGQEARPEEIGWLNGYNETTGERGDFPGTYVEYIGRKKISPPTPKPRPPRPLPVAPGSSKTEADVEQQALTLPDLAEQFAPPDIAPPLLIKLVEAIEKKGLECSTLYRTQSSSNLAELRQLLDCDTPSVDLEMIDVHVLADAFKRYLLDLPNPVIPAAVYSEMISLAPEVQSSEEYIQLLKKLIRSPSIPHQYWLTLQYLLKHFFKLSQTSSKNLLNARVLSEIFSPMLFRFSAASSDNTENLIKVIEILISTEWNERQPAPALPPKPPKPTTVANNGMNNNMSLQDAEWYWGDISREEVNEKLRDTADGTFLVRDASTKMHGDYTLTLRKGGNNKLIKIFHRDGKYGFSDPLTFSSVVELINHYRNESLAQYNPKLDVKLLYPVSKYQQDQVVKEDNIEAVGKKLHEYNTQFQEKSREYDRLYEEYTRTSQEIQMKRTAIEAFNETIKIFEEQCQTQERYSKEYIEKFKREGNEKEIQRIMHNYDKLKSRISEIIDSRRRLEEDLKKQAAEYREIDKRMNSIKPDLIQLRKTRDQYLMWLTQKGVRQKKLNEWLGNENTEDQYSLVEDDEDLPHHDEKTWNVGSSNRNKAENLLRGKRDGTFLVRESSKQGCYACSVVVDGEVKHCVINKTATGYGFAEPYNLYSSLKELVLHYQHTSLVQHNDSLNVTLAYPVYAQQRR
How it was run: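 Serum-free MDA-MB-453 cells with 1 μg/mL insulin treated 3 h with a 10-point compound series in 0.3% DMSO; lysates analysed by AlphaLisa SureFire. Relative IC50 from 4-parameter fit of % inhibition versus DMSO (max) and 1 μM GDC-0032 (min) controls, duplicates.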

[4] = read-out: PI3K-α (PIK3CA) in vitro cell based assay IC50, 0% FBS, 3 hours treatment
[5] = 0% FBS, 3 hours treatment, read-out: PI3K-α (PIK3CA) in vitro cell based assay IC50

Compound `Cc1cc(C(C)Nc2ccccc2C(=O)O)c2oc(-c3cc(C)n[nH]3)cc(=O)c2c1` (single isomer, unassigned) [Example 75, 2-[1-[6-Methyl-2-(3-methyl-1H-pyrazol-5-yl)-4-oxo-chromen-8-yl]ethylamino]benzoic acid, Isomer 2,2,2,2-trifluoroacetic acid] has an IC50 [1] of less than 500 nM, an IC50 [2] of 5000 to 10000 nM and an IC50 [3, 4] of 50 to 100 nM.

For `Cc1cc(C(C)Nc2cccc(F)c2C(=O)O)c2oc(-c3ccccn3)cc(=O)c2c1` (single isomer, unassigned; isomer 1) [Example 110, 2-Fluoro-6-[1-[6-methyl-4-oxo-2-(2-pyridyl)chromen-8-yl]ethylamino]benzoic acid, Isomer 1], the IC50 [1] was less than 500 nM, the IC50 [2] was 1000 to 5000 nM and the IC50 [3, 5] was 100 to 500 nM.

Work on `Cc1cc(C(C)Nc2ccc(Cl)nc2C(=O)O)c2oc(-c3cccnc3)c(C)c(=O)c2c1` (single isomer, unassigned; isomer 1) [Example 115, 6-Chloro-3-[1-[3,6-dimethyl-4-oxo-2-(3-pyridyl)chromen-8-yl]ethylamino]pyridine-2-carboxylic acid, Isomer 1] yielded an IC50 [1] of less than 500 nM, an IC50 [2] of 500 to 1000 nM and an IC50 [3, 5] of less than 50 nM.

With `Cc1cc(C(C)Nc2ccccc2C(=O)O)c2oc(-c3cncc(F)c3)cc(=O)c2c1` (single isomer, unassigned) [Example 44, 2-[1-[2-(5-Fluoro-3-pyridyl)-6-methyl-4-oxo-chromen-8-yl]ethylamino]benzoic acid, Isomer 2,2,2,2-trifluoroacetic acid] the IC50 [1] was less than 500 nM, the IC50 [2] was 1000 to 5000 nM and the IC50 [3, 4] was less than 50 nM.

In the case of `COc1cccc(-c2cc(=O)c3cc(C)cc(C(C)Nc4ccccc4C(=O)O)c3o2)n1` (single isomer, unassigned; isomer 1) [Example 21, 2-[1-[2-(6-Methoxy-2-pyridyl)-6-methyl-4-oxo-chromen-8-yl]ethylamino]benzoic acid, Isomer 1], the IC50 [1] is reported as 5000 to 10000 nM, the IC50 [2] is reported as greater than 10000 nM and the IC50 [3, 5] is reported as greater than 500 nM.

With `Cc1cc(C(C)Nc2ccccc2C(=O)O)c2oc(-c3cccnc3)c(C)c(=O)c2c1` (single isomer, unassigned; isomer 1) [Example 25, 2-[1-[3,6-Dimethyl-4-oxo-2-(3-pyridyl)chromen-8-yl]ethylamino]benzoic acid, Isomer 1] the IC50 [1] was less than 500 nM, the IC50 [2] was 500 to 1000 nM and the IC50 [3, 5] was less than 50 nM.

`Cc1cc(C(C)Nc2ccc(Br)nc2C(=O)O)c2oc(-c3cccnc3)c(C)c(=O)c2c1` (single isomer, unassigned; isomer 1) [Example 129, 6-Bromo-3-[1-[3,6-dimethyl-4-oxo-2-(3-pyridyl)chromen-8-yl]ethylamino]pyridine-2-carboxylic acid, Isomer 1] showed an IC50 [1] of less than 500 nM, an IC50 [2] of less than 500 nM and an IC50 [3, 5] of less than 50 nM.

`Cc1cc(C(C)Nc2ccccc2C(=O)O)c2oc(-c3cnn(-c4cccc(C#N)c4)c3)c(C)c(=O)c2c1` (single isomer, unassigned) [Example 74, 2-[1-[2-[1-(3-Cyanophenyl)pyrazol-4-yl]-3,6-dimethyl-4-oxo-chromen-8-yl]ethylamino]benzoic acid, Isomer 1,2,2,2-trifluoroacetic acid] showed an IC50 [1] of less than 500 nM, an IC50 [2] of 500 to 1000 nM and an IC50 [3, 4] of less than 50 nM.

`Cc1cc(C(C)Nc2ccc(F)c(F)c2C(=O)O)c2oc(-c3cnn(-c4ccc(C#N)cc4)c3)cc(=O)c2c1` (single isomer, unassigned; isomer 1) [Example 114, 6-[1-[2-[1-(4-Cyanophenyl)pyrazol-4-yl]-6-methyl-4-oxo-chromen-8-yl]ethylamino]-2,3-difluoro-benzoic acid, Isomer 1] showed an IC50 [1] of 1000 to 5000 nM, an IC50 [2] of 5000 to 10000 nM and an IC50 [3, 5] greater than 500 nM.

`Cc1cc(C(C)Nc2ccccc2C(=O)O)c2oc(-c3ccc(S(C)(=O)=O)nc3)cc(=O)c2c1` (single isomer, unassigned; isomer 1) [Example 39, 2-[1-[6-Methyl-2-(6-methylsulfonyl-3-pyridyl)-4-oxo-chromen-8-yl]ethylamino]benzoic acid, Isomer 1] showed an IC50 [1] greater than 10000 nM, an IC50 [2] greater than 10000 nM and an IC50 [3, 5] greater than 500 nM.

`Cc1cc(C(C)Nc2cccc(F)c2C(=O)O)c2oc(-c3cnn(-c4ccc(C#N)cc4)c3)cc(=O)c2c1` (single isomer, unassigned; isomer 1) [Example 112, 2-[1-[2-[1-(4-Cyanophenyl)pyrazol-4-yl]-6-methyl-4-oxo-chromen-8-yl]ethylamino]-6-fluoro-benzoic acid, Isomer 1] gave an IC50 [1] of 5000 to 10000 nM, an IC50 [2] greater than 10000 nM and an IC50 [3, 5] greater than 500 nM.

In the case of `COc1ccc(-n2cc(-c3cc(=O)c4cc(C)cc(C(C)Nc5ccccc5C(=O)O)c4o3)cn2)cn1` (single isomer, unassigned) [Example 81, 2-[1-[2-[1-(6-Methoxy-3-pyridyl)pyrazol-4-yl]-6-methyl-4-oxo-chromen-8-yl]ethylamino]benzoic acid, Isomer 2,2,2,2-trifluoroacetic acid], the IC50 [1] is reported as 500 to 1000 nM, the IC50 [2] is reported as 5000 to 10000 nM and the IC50 [3, 4] is reported as 50 to 100 nM.

For `Cc1cc(C(C)Nc2ccc(Cl)nc2C(=O)O)c2oc(-c3ccccn3)c(C)c(=O)c2c1` (single isomer, unassigned) [Example 121, 6-Chloro-3-[1-[3,6-dimethyl-4-oxo-2-(2-pyridyl)chromen-8-yl]ethylamino]pyridine-2-carboxylic acid, Isomer 1,2,2,2-trifluoroacetic acid], the IC50 [1] was less than 500 nM, the IC50 [2] was 1000 to 5000 nM and the IC50 [3, 4] was less than 50 nM.

`Cc1cc(C(C)Nc2ccc(C(F)(F)F)nc2C(=O)O)c2oc(-c3cccnc3)c(C)c(=O)c2c1` (single isomer, unassigned; isomer 1) [Example 117, 3-[1-[3,6-Dimethyl-4-oxo-2-(3-pyridyl)chromen-8-yl]ethylamino]-6-(trifluoromethyl)pyridine-2-carboxylic acid, Isomer 1] was tested, and the IC50 [1] was less than 500 nM, the IC50 [2] was 1000 to 5000 nM and the IC50 [3, 5] was less than 50 nM.

`Cc1cc(C(C)Nc2ccccc2C(=O)O)c2oc(-c3nccnc3C)cc(=O)c2c1` (single isomer, unassigned; isomer 2) [Example 29, 2-[1-[6-Methyl-2-(3-methylpyrazin-2-yl)-4-oxo-chromen-8-yl]ethylamino]benzoic acid, Isomer 2] showed an IC50 [1] of less than 500 nM, an IC50 [2] of 5000 to 10000 nM and an IC50 [3, 5] of 100 to 500 nM.

With `Cc1cc(C(C)Nc2ccccc2C(=O)O)c2oc(-c3cnn(-c4ccc(C#N)c(F)c4)c3)cc(=O)c2c1` (single isomer, unassigned) [Example 85, 2-[1-[2-[1-(4-Cyano-3-fluoro-phenyl)pyrazol-4-yl]-6-methyl-4-oxo-chromen-8-yl]ethylamino]benzoic acid, Isomer 2,2,2,2-trifluoroacetic acid] the IC50 [1] was less than 500 nM, the IC50 [2] was 1000 to 5000 nM and the IC50 [3, 4] was 100 to 500 nM.

Compound `Cc1cc(C(C)Nc2ccccc2C(=O)O)c2oc(-c3cnn(-c4ccc(C#N)nc4)c3)cc(=O)c2c1` (single isomer, unassigned) [Example 82, 2-[1-[2-[1-(6-Cyano-3-pyridyl)pyrazol-4-yl]-6-methyl-4-oxo-chromen-8-yl]ethylamino]benzoic acid, Isomer 2,2,2,2-trifluoroacetic acid] has an IC50 [1] of less than 500 nM, an IC50 [2] of 1000 to 5000 nM and an IC50 [3, 4] of 50 to 100 nM.

For `Cc1cc(C(C)Nc2ccccc2C(=O)O)c2oc(-c3cncc(-n4cccn4)c3)c(C)c(=O)c2c1` (single isomer, unassigned) [Example 127, 2-[1-[3,6-Dimethyl-4-oxo-2-(5-pyrazol-1-yl-3-pyridyl)chromen-8-yl]ethylamino]benzoic acid, Isomer 1,2,2,2-trifluoroacetic acid], the IC50 [1] was less than 500 nM, the IC50 [2] was 1000 to 5000 nM and the IC50 [3, 4] was less than 50 nM.

`COc1ncc(-n2cc(-c3oc4c(C(C)Nc5ccccc5C(=O)O)cc(C)cc4c(=O)c3C)cn2)cn1` (single isomer, unassigned) [Example 72, 2-[1-[2-[1-(2-Methoxypyrimidin-5-yl)pyrazol-4-yl]-3,6-dimethyl-4-oxo-chromen-8-yl]ethylamino]benzoic acid, Isomer 1,2,2,2-trifluoroacetic acid] gave an IC50 [1] of less than 500 nM, an IC50 [2] of 1000 to 5000 nM and an IC50 [3, 4] of 50 to 100 nM.

Work on `COc1cccc(-c2cc(=O)c3cc(C)cc(C(C)Nc4ccccc4C(=O)O)c3o2)n1` (single isomer, unassigned; isomer 2) [Example 22, 2-[1-[2-(6-Methoxy-2-pyridyl)-6-methyl-4-oxo-chromen-8-yl]ethylamino]benzoic acid, Isomer 2] yielded an IC50 [1] of less than 500 nM, an IC50 [2] of 1000 to 5000 nM and an IC50 [3, 5] of 50 to 100 nM.

For `Cc1cc(C(C)Nc2ccccc2C(=O)O)c2oc(-c3cnc(OC(C)C)nc3)cc(=O)c2c1` (single isomer, unassigned; isomer 2) [Example 42, 2-[1-[2-(2-Isopropoxypyrimidin-5-yl)-6-methyl-4-oxo-chromen-8-yl]ethylamino]benzoic acid, Isomer 2], the IC50 [1] was less than 500 nM, the IC50 [2] was 5000 to 10000 nM and the IC50 [3, 5] was 50 to 100 nM.

`Cc1cc(C(C)Nc2ccccc2C(=O)O)c2oc(-c3cnn(-c4ccc(C#N)cc4)c3)c(C)c(=O)c2c1` (single isomer, unassigned) [Example 73, 2-[1-[2-[1-(4-Cyanophenyl)pyrazol-4-yl]-3,6-dimethyl-4-oxo-chromen-8-yl]ethylamino]benzoic acid, Isomer 1,2,2,2-trifluoroacetic acid] showed an IC50 [1] of less than 500 nM, an IC50 [2] of 500 to 1000 nM and an IC50 [3, 4] of 50 to 100 nM.
